± gives the expanded uncertainty stated by the source.
Legend:
[1] = refractive index (Na D-line) (dimensionless); settings: 293.15 K; 101.33 kPa; Liquid; Standard Abbe refractometry
[2] = 101.33 kPa, Liquid
[3] = Boiling temperature at pressure P; settings: Liquid, Distillation

Row | refractive index [1] | mass density ([2]; 293.15 K) [kg/m3] | Boiling temperature at pressure P ([3]; 101.33 kPa) [°C] | Boiling temperature at pressure P ([3]; 1.733 kPa) [°C] | mass density ([2]; 298.15 K) [kg/m3] | SMILES
1 | 1.41969 ± 0.00082 | 1119.13 ± 1.5 | 196.1 ± 0.2 |  |  | COC(=O)CCC(=O)OC [dimethyl 1,4-butanedioate]
2 | 1.42825 ± 0.00075 | 1061.72 ± 0.61 |  | 115 ± 1 |  | COC(=O)CCCCC(=O)OC [dimethyl 1,6-hexanedioate]
3 | 1.42454 ± 0.00075 | 1087.67 ± 0.68 | 214.2 ± 0.2 |  |  | COC(=O)CCCC(=O)OC [dimethyl pentanedioate]
4 | 1.3808 ± 0.00075 |  | 141.4 ± 0.2 |  | 988 ± 0.5 | CCC(=O)O [propanoic acid]

From the NIST ThermoML archive (doi:10.1016/j.jct.2007.02.012)
